The values that follow come from patent US8791132B2, “Compounds and methods for treatment of hypertension” (Medivation Technologies, Inc., priority 2011, dated 2014).

Molecules are shown by their SMILES.

As usually defined, the inhibition is the change of the read-out against control, counted positive when it falls.

Experiment [1] concerns the target T1, human recombinant adrenergic α2A receptor (Homo sapiens, UniProt P08913).
T1 construct: expressed in transfected cells; host or cells: insect Sf9 cells
T1 sequence (P08913 1-465): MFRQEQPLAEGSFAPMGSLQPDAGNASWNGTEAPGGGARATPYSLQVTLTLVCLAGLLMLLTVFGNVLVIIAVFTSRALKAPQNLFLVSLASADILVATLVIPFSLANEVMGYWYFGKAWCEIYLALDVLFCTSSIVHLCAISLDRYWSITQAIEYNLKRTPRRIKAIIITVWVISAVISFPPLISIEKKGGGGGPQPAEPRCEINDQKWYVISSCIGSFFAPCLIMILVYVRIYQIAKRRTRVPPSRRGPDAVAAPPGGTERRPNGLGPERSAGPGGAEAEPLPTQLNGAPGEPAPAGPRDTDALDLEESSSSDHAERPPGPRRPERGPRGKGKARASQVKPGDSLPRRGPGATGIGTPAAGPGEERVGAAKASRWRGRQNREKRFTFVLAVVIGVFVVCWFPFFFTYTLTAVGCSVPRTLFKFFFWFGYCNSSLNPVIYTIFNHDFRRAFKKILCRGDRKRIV
The experiment can be described thus: Radioligand binding, adrenergic α2A ([3H]MK-912). As to conditions: compound at 0.1 μM, [3H]MK-912, repeat assays, each datapoint shown; for Percentage inhibition of ligand binding, Adrenergic α2A: 0.1 µM; for inhibition at 0.1 µM: read-out: Percentage inhibition of ligand binding, Adrenergic α2A. An outline of the steps: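 Receptor expressed in insect Sf9 cells, assayed in 50 mM Tris-HCl pH 7.4 with 12.5 mM MgCl2 and 2 mM EDTA. Compounds incubated with 1 nM [3H]MK-912 for 60 min at 25 °C; nonspecific binding defined with 10 μM WB-4101. Filter-bound radioactivity counted; values are percent inhibition of specific binding.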

The target in experiment [2] is T2, rat adrenergic α1B receptor (Rattus norvegicus, UniProt P15823).
T2 construct: rat adrenergic α1B receptor obtained from Wistar Rat liver; from tissue; host or cells: Wistar rat liver
T2 sequence (P15823 1-515): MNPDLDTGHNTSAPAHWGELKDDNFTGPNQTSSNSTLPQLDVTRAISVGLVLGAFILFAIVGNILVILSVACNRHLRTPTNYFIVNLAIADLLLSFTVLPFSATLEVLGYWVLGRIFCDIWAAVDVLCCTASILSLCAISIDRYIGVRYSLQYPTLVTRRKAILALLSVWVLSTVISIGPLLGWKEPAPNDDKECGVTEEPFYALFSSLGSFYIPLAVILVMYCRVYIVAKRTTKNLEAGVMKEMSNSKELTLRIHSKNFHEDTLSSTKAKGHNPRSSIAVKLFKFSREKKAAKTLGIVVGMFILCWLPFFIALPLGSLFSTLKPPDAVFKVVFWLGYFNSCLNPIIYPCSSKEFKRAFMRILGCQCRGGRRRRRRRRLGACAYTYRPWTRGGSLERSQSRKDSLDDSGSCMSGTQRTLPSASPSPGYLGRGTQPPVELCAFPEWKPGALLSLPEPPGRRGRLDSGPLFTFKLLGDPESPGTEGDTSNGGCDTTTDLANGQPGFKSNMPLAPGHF
The experiment can be described thus: Radioligand binding, adrenergic α1B ([3H]Prazosin). As to conditions: compound at 0.1 μM, [3H]Prazosin, repeat assays, each datapoint shown; for Percentage inhibition of ligand binding, Adrenergic α1B: 0.1 µM; for inhibition at 0.1 µM: read-out: Percentage inhibition of ligand binding, Adrenergic α1B. An outline of the steps: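 Filter binding with Wistar rat liver α1B preparation: test compound plus 0.25 nM [3H]prazosin, 1 h at 25° C in modified Tris-HCl buffer pH 7.4.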

For experiment [3], the target named is T3, human recombinant adrenergic α2B receptor (Homo sapiens, UniProt P18089).
T3 construct: expressed in transfected cells; host or cells: CHO-K1
T3 sequence (P18089 1-450): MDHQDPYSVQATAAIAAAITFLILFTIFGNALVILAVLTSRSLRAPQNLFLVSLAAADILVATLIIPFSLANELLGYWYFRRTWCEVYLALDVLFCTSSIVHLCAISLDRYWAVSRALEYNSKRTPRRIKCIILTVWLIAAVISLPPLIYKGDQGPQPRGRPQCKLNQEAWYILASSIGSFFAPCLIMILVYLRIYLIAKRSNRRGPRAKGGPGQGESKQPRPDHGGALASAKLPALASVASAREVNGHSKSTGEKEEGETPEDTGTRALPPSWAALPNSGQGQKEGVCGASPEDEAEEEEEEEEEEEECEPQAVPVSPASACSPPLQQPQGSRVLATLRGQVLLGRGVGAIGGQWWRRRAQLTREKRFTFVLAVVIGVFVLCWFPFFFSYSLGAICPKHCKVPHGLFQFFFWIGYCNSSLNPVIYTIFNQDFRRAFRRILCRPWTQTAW
Briefly: Radioligand binding, adrenergic α2B ([3H]Rauwolscine). As to conditions: compound at 0.03 μM, [3H]Rauwolscine, repeat assays, each datapoint shown; for Percentage inhibition of ligand binding, Adrenergic α2B: 0.03 µM; for inhibition at 0.03 µM: read-out: Percentage inhibition of ligand binding, Adrenergic α2B. An outline of the steps: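 Membranes from CHO-K1 cells expressing human recombinant α2B, in 50 mM Tris-HCl pH 7.4, 12.5 mM MgCl2, 1 mM EDTA, 0.2% BSA, incubated with compound and 2.5 nM [3H]Rauwolscine, 60 min, 25 °C.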

Regarding `Cc1ccc2c(c1)c1c(n2CC(O)c2ccncc2)CCN2CCCCC12` (single isomer, unassigned) [47c], the “Percentage inhibition of ligand binding, Adrenergic α2A” value (from here on “Percentage inhibition … Adrenergic α2A”) in experiment [1] turned out to be 4%. Further, the “Percentage inhibition of ligand binding, Adrenergic α1B” value (“Percentage inhibition … Adrenergic α1B” for short) in experiment [2] is 6%. The “Percentage inhibition of ligand binding, Adrenergic α2B” value (shortened to “Percentage inhibition … Adrenergic α2B”) in experiment [3] turned out to be 53%.

With `Cc1ccc2c(c1)c1c(n2CC(O)c2ccncc2)CCN2CCCCC12` (single isomer, unassigned) [47d], the “Percentage inhibition … Adrenergic α2A” value in experiment [1] is reported as −3%. In addition, the “Percentage inhibition … Adrenergic α1B” value in experiment [2] is 5%. Also, in experiment [3], the “Percentage inhibition … Adrenergic α2B” value was 30%.

Turning to `CN1CCc2c(c3cccc(Br)c3n2CC(O)c2ccncc2)C1` (single isomer, unassigned) [48a], the inhibition at 0.1 µM in experiment [1] came out at 12%; in experiment [2] it was 16%. Further, the “Percentage inhibition … Adrenergic α2B” value in experiment [3] is given as 58%.

Turning to `CN1CCc2c(c3cccc(Br)c3n2CC(O)c2ccncc2)C1` (single isomer, unassigned) [48b], the “Percentage inhibition … Adrenergic α2A” value in experiment [1] was determined as 17%. The “Percentage inhibition … Adrenergic α1B” value in experiment [2] stood at 14%. Besides, the “Percentage inhibition … Adrenergic α2B” value in experiment [3] stood at 86%.

As to `CC(=O)c1ccc2c(c1)c1c(n2CC(O)c2ccncc2)CCN(C)C1` (single isomer, unassigned) [49a, 1-(2,3,4,5-tetrahydro-5-(2-hydroxy-2-(pyridin-4-yl)ethyl)-2-methyl-1H-pyrido[4,3-b]indol-8-yl)ethanone], the “Percentage inhibition … Adrenergic α2A” value in experiment [1] worked out at 1%. In addition, in experiment [2], the inhibition at 0.1 µM came out at 4%. The inhibition at 0.03 µM in experiment [3] was found to be 18%.

Consider `CC(=O)c1ccc2c(c1)c1c(n2CC(O)c2ccncc2)CCN(C)C1` (single isomer, unassigned) [49b, 1-(2,3,4,5-tetrahydro-5-(2-hydroxy-2-(pyridin-4-yl)ethyl)-2-methyl-1H-pyrido[4,3-b]indol-8-yl)ethanone], for which, in experiment [1], the “Percentage inhibition … Adrenergic α2A” value came to 6%. Further, the “Percentage inhibition … Adrenergic α1B” value in experiment [2] is recorded as 5%. The “Percentage inhibition … Adrenergic α2B” value in experiment [3] worked out at 19%.

In the case of `COc1ccc(C(O)Cn2c3c(c4cc(C)ccc42)CN(C)CC3)cn1` (single isomer, unassigned) [51a, 2-(2,8-dimethyl-1,2,3,4-tetrahydro-pyrido[4,3-b]indol-5-yl)-1-(6-methoxy-pyridin-3-yl)-ethanol], in experiment [1], the “Percentage inhibition … Adrenergic α2A” value was found to be 11%. For the same compound, in experiment [2], the “Percentage inhibition … Adrenergic α1B” value worked out at 8%. The “Percentage inhibition … Adrenergic α2B” value in experiment [3] is 21%.

In the case of `COc1ccc(C(O)Cn2c3c(c4cc(C)ccc42)CN(C)CC3)cn1` (single isomer, unassigned) [51b, 2-(2,8-dimethyl-1,2,3,4-tetrahydro-pyrido[4,3-b]indol-5-yl)-1-(6-methoxy-pyridin-3-yl)-ethanol], the “Percentage inhibition … Adrenergic α2A” value in experiment [1] amounted to 26%. Further, the “Percentage inhibition … Adrenergic α1B” value in experiment [2] is listed as 36%. In addition, in experiment [3], the “Percentage inhibition … Adrenergic α2B” value is on record as 90%.

As for `CN1CCc2c(c3ccc(Cl)cc3n2CC(O)c2ccncc2)C1` (single isomer, unassigned) [53a, 2-(7-chloro-2-methyl-3,4-dihydro-1H-pyrido[4,3-b]indol-5(2H)-yl)-1-(pyridin-4-yl)ethanol], the inhibition at 0.1 µM in experiment [1] is 10%; in experiment [2], 12%. The “Percentage inhibition … Adrenergic α2B” value in experiment [3] turned out to be 37%.

On to `CN1CCc2c(c3ccc(Cl)cc3n2CC(O)c2ccncc2)C1` (single isomer, unassigned) [53b, 2-(7-chloro-2-methyl-3,4-dihydro-1H-pyrido[4,3-b]indol-5(2H)-yl)-1-(pyridin-4-yl)ethanol], for which, in experiment [1], the “Percentage inhibition … Adrenergic α2A” value is recorded as 12%. Moreover, in experiment [2], the “Percentage inhibition … Adrenergic α1B” value was 14%. For the same compound, in experiment [3], the “Percentage inhibition … Adrenergic α2B” value was 85%.

For the compound `Cc1ccc2c(c1)c1c(n2CC(OC(=O)C(C)C)c2ccncc2)CCN(C)C1` (single isomer, unassigned) [54a, 2-(1,2,3,4-tetrahydro-2,8-dimethylpyrido[4,3-b]indol-5-yl)-1-(pyridin-4-yl)ethyl isobutyrate], in experiment [1], the “Percentage inhibition … Adrenergic α2A” value is reported as 30%. Besides, the “Percentage inhibition … Adrenergic α1B” value in experiment [2] worked out at 39%. In experiment [3], the inhibition at 0.03 µM was 105%.

Turning to `Cc1ccc2c(c1)c1c(n2CC(OC(=O)C(C)C)c2ccncc2)CCN(C)C1` (single isomer, unassigned) [54b, 2-(1,2,3,4-tetrahydro-2,8-dimethylpyrido[4,3-b]indol-5-yl)-1-(pyridin-4-yl)ethyl isobutyrate], the “Percentage inhibition … Adrenergic α2A” value in experiment [1] was 66%. Further, in experiment [2], the “Percentage inhibition … Adrenergic α1B” value was determined as 71%. Moreover, the “Percentage inhibition … Adrenergic α2B” value in experiment [3] turned out to be 106%.

As for `Cc1cnc2c(c1)c1c(n2CC(O)c2ccncc2)CCN(C)C1` (single isomer, unassigned) [55a, 2-(3,6-dimethyl-5,6,7,8-tetrahydro-1,6,9-triaza-fluoren-9-yl)-1-pyridin-4-yl-ethanol], the “Percentage inhibition … Adrenergic α2A” value in experiment [1] is recorded as 11%. Moreover, the “Percentage inhibition … Adrenergic α1B” value in experiment [2] stood at 28%. For the same compound, in experiment [3], the “Percentage inhibition … Adrenergic α2B” value amounted to 14%.

Consider `Cc1cnc2c(c1)c1c(n2CC(O)c2ccncc2)CCN(C)C1` (single isomer, unassigned) [55b, 2-(3,6-dimethyl-5,6,7,8-tetrahydro-1,6,9-triaza-fluoren-9-yl)-1-pyridin-4-yl-ethanol], for which the “Percentage inhibition … Adrenergic α2A” value in experiment [1] was found to be 7%. In addition, the “Percentage inhibition … Adrenergic α1B” value in experiment [2] stood at 57%. For the same compound, in experiment [3], the “Percentage inhibition … Adrenergic α2B” value amounted to 67%.

Consider `Cc1ccc2c(c1)c1c(n2CC(C)(O)c2ccc[n+]([O-])c2)CCN(C)C1` (single isomer, unassigned) [56a], for which the inhibition at 0.1 µM in experiment [1] came to 11%. The “Percentage inhibition … Adrenergic α1B” value in experiment [2] was found to be 1%. Also, in experiment [3], the inhibition at 0.03 µM turned out to be 20%.

As for `Cc1ccc2c(c1)c1c(n2CC(C)(O)c2ccc[n+]([O-])c2)CCN(C)C1` (single isomer, unassigned) [56b], in experiment [1], the “Percentage inhibition … Adrenergic α2A” value is given as 17%. The “Percentage inhibition … Adrenergic α1B” value in experiment [2] worked out at 6%. Further, in experiment [3], the “Percentage inhibition … Adrenergic α2B” value turned out to be 28%.

Take `CN1CCc2c(c3cccc(Cl)c3n2CC(C)(O)c2cccnc2)C1` (single isomer, unassigned) [57a, 1-(6-chloro-2-methyl-1,2,3,4-tetrahydro-pyrido[4,3-b]indol-5-yl)-2-pyridin-3-yl-propan-2-ol]: the inhibition at 0.1 µM in experiment [1] is 22%. Besides, in experiment [2], the “Percentage inhibition … Adrenergic α1B” value turned out to be 3%. In addition, the “Percentage inhibition … Adrenergic α2B” value in experiment [3] was determined as 16%.
